Laboratory results reported in the supplement of paper PMC6045584.
± gives the standard deviation of the averaged measurements.

Experiments:
OSI-906 = compound: C[C@]1(O)C[C@@H](c2nc(-c3ccc4ccc(-c5ccccc5)nc4c3)c3c(N)nccn32)C1 [OSI-906]; assay: area under dose-response curve of surviving fraction (unscaled, Aref=0) (surviving fraction x log10(nM)); higher = more resistant; details: exposure time: 5 days; dose range 0.5-1000 nM
In short: (§1)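 Each tumour cell line was screened three times in 384-well plates, receiving eight inhibitor concentrations from 0.5 to 1000 nM for five days. CellTiter-Glo luminescence gave viability, normalised to DMSO-only wells. Using the drc R package, surviving fractions were fitted with 3-parameter logistic dose-response curves, and the unscaled activity area over log10 dose (Aref = 0) was taken as the area under the curve.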

GEFITINIB = compound: COc1cc2ncnc(Nc3ccc(F)c(Cl)c3)c2cc1OCCCN1CCOCC1 [GEFITINIB]; assay: as above; details: exposure time: 5 days; dose range 0.5-1000 nM
In short: as §1

CAMPTOTHECIN = compound: CC[C@@]1(O)C(=O)OCc2c1cc1n(c2=O)Cc2cc3ccccc3nc2-1 [CAMPTOTHECIN]; assay: as above; details: exposure time: 5 days; dose range 0.5-1000 nM
In short: as §1

PACLITAXEL = compound: CC(=O)O[C@H]1C(=O)[C@@]2(C)[C@H]([C@H](OC(=O)c3ccccc3)[C@]3(O)C[C@H](OC(=O)[C@H](O)[C@@H](NC(=O)c4ccccc4)c4ccccc4)C(C)=C1C3(C)C)[C@]1(OC(C)=O)CO[C@@H]1C[C@@H]2O [PACLITAXEL]; assay: as above; details: exposure time: 5 days; dose range 0.5-1000 nM
In short: as §1

CARBOPLATIN = compound: O=C(O)C1(C(=O)O)CCC1.[NH2-].[NH2-].[Pt+2] [CARBOPLATIN]; assay: as above; details: exposure time: 5 days; dose range 0.5-1000 nM
In short: as §1

CELECOXIB [1] = compound: T1, Cc1ccc(-c2cc(C(F)(F)F)nn2-c2ccc(S(N)(=O)=O)cc2)cc1 [CELECOXIB]; assay: as above; details: exposure time: 5 days; dose range 0.5-1000 nM
In short: as §1

[2] = compound: CC(=O)c1c(C)c2cnc(Nc3ccc(N4CCNCC4)cn3)nc2n(C2CCCC2)c1=O; assay: as above; details: exposure time: 5 days; dose range 0.5-1000 nM
In short: as §1

YM155 = compound: COCC[n+]1c2c(n(Cc3cnccn3)c1C)C(=O)c1ccccc1C2=O [YM155]; assay: as above; details: exposure time: 5 days; dose range 0.5-1000 nM
In short: as §1

[3] = compound: CC(=O)NCC(=O)N1[C@@H]2CC[C@H]1c1ccc(Nc3ncc(C(F)(F)F)c(NC4CCC4)n3)cc12; assay: as above; details: exposure time: 5 days; dose range 0.5-1000 nM
In short: as §1

CELECOXIB [4] = compound: T1, CELECOXIB; assay: surviving fraction relative to DMSO-only wells; higher = less growth inhibition; details: exposure time: 5 days
In short: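 Surviving fraction is CellTiter-Glo luminescence divided by the median of wells given DMSO only. For this, log-phase tumour cell lines went into 384-well plates at 250–500 cells per well and, 24 hours later, into five days of continuous inhibitor exposure at 0.5, 1, 5, 10, 50, 100, 500 and 1000 nM. Lines were screened three times and retained only if replicate Pearson r >0.7 and median Z' >0.3.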

SCC36 HEADNECK
area under dose-response curve (OSI-906): 2.48
area under dose-response curve (GEFITINIB): 2.61
area under dose-response curve (CAMPTOTHECIN): 1.36
area under dose-response curve (PACLITAXEL): 0.905
area under dose-response curve (CARBOPLATIN): 3.45
area under dose-response curve (CELECOXIB [1]): 3.53
area under dose-response curve [2]: 3.5
area under dose-response curve (YM155): 1.77
area under dose-response curve [3]: 2.74
surviving fraction (CELECOXIB [4]; 0.5 nM): 1.05 ± 0.029
surviving fraction (CELECOXIB [4]; 1 nM): 0.924 ± 0.11
surviving fraction (CELECOXIB [4]; 5 nM): 1.13 ± 0.057
surviving fraction (CELECOXIB [4]; 10 nM): 1.09 ± 0.025
surviving fraction (CELECOXIB [4]; 50 nM): 1.16 ± 0.12
surviving fraction (CELECOXIB [4]; 100 nM): 1.08 ± 0.044
surviving fraction (CELECOXIB [4]; 500 nM): 1.13 ± 0.079
surviving fraction (CELECOXIB [4]; 1000 nM): 1.04 ± 0.14

MDAMB361 BREAST
area under dose-response curve (OSI-906): 2.51
area under dose-response curve (GEFITINIB): 2.9
area under dose-response curve (CAMPTOTHECIN): 2.14
area under dose-response curve (PACLITAXEL): 2.36
area under dose-response curve (CARBOPLATIN): 2.64
area under dose-response curve (CELECOXIB [1]): 2.93
area under dose-response curve [2]: 2.85
area under dose-response curve (YM155): 1.61
area under dose-response curve [3]: 3.12
surviving fraction (CELECOXIB [4]; 0.5 nM): 0.857 ± 0.13
surviving fraction (CELECOXIB [4]; 1 nM): 0.895 ± 0.013
surviving fraction (CELECOXIB [4]; 5 nM): 0.897 ± 0.12
surviving fraction (CELECOXIB [4]; 10 nM): 0.896 ± 0.081
surviving fraction (CELECOXIB [4]; 50 nM): 0.857 ± 0.17
surviving fraction (CELECOXIB [4]; 100 nM): 0.89 ± 0.21
surviving fraction (CELECOXIB [4]; 500 nM): 0.909 ± 0.091
surviving fraction (CELECOXIB [4]; 1000 nM): 0.968 ± 0.17

HCT15 LARGE INTESTINE
area under dose-response curve (OSI-906): 2.9
area under dose-response curve (GEFITINIB): 3.44
area under dose-response curve (CAMPTOTHECIN): 0.543
area under dose-response curve (PACLITAXEL): 1.76
area under dose-response curve (CARBOPLATIN): 3.51
area under dose-response curve (CELECOXIB [1]): 3.49
area under dose-response curve [2]: 3.59
area under dose-response curve (YM155): 2.03
area under dose-response curve [3]: 2.05
surviving fraction (CELECOXIB [4]; 0.5 nM): 1.02 ± 0.062
surviving fraction (CELECOXIB [4]; 1 nM): 1.03 ± 0.031
surviving fraction (CELECOXIB [4]; 5 nM): 1.06 ± 0.039
surviving fraction (CELECOXIB [4]; 10 nM): 1.04 ± 0.022
surviving fraction (CELECOXIB [4]; 50 nM): 1.07 ± 0.061
surviving fraction (CELECOXIB [4]; 100 nM): 1.07 ± 0.077
surviving fraction (CELECOXIB [4]; 500 nM): 1.09 ± 0.053
surviving fraction (CELECOXIB [4]; 1000 nM): 1.1 ± 0.044

CAL120 BREAST
area under dose-response curve (OSI-906): 3
area under dose-response curve (GEFITINIB): 3.22
area under dose-response curve (CAMPTOTHECIN): 1.05
area under dose-response curve (PACLITAXEL): 0.641
area under dose-response curve (CARBOPLATIN): 3.13
area under dose-response curve (CELECOXIB [1]): 3.26
area under dose-response curve [2]: 3.17
area under dose-response curve (YM155): 0.732
area under dose-response curve [3]: 2.64
surviving fraction (CELECOXIB [4]; 0.5 nM): 0.962 ± 0.045
surviving fraction (CELECOXIB [4]; 1 nM): 0.979 ± 0.039
surviving fraction (CELECOXIB [4]; 5 nM): 0.964 ± 0.067
surviving fraction (CELECOXIB [4]; 10 nM): 0.99 ± 0.049
surviving fraction (CELECOXIB [4]; 50 nM): 1 ± 0.04
surviving fraction (CELECOXIB [4]; 100 nM): 1.01 ± 0.032
surviving fraction (CELECOXIB [4]; 500 nM): 0.995 ± 0.085
surviving fraction (CELECOXIB [4]; 1000 nM): 1 ± 0.011

T47D BREAST
area under dose-response curve (OSI-906): 3.09
area under dose-response curve (GEFITINIB): 3.54
area under dose-response curve (CAMPTOTHECIN): 1.54
area under dose-response curve (PACLITAXEL): 1.04
area under dose-response curve (CARBOPLATIN): 3.42
area under dose-response curve (CELECOXIB [1]): 3.64
area under dose-response curve [2]: 3.62
area under dose-response curve (YM155): 1.68
area under dose-response curve [3]: 3.44
surviving fraction (CELECOXIB [4]; 0.5 nM): 1.08 ± 0.026
surviving fraction (CELECOXIB [4]; 1 nM): 1.05 ± 0.081
surviving fraction (CELECOXIB [4]; 5 nM): 1.08 ± 0.043
surviving fraction (CELECOXIB [4]; 10 nM): 1.08 ± 0.035
surviving fraction (CELECOXIB [4]; 50 nM): 1.14 ± 0.054
surviving fraction (CELECOXIB [4]; 100 nM): 1.15 ± 0.021
surviving fraction (CELECOXIB [4]; 500 nM): 1.11 ± 0.014
surviving fraction (CELECOXIB [4]; 1000 nM): 1.13 ± 0.012
